# Reference: the supplement of paper PMC10307832
# Legend:
# Assay in all cases: relative viability (nuclei count vs DMSO), 5 days (fraction); higher = more cells survive
# Alisertib + Navitoclax = compound: COc1cc(Nc2ncc3c(n2)-c2ccc(Cl)cc2C(c2c(F)cccc2OC)=NC3)ccc1C(=O)O [Alisertib] + CC1(C)CCC(c2ccc(Cl)cc2)=C(CN2CCN(c3ccc(C(=O)NS(=O)(=O)c4ccc(N[C@H](CCN5CCOCC5)CSc5ccccc5)c(S(=O)(=O)C(F)(F)F)c4)cc3)CC2)C1 [Navitoclax] (partner 0.5 µM)
# How it was run: (§1)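 Lung cancer cell lines in 1536-well plates were dosed by pin tool the day after seeding, either with one drug alone or with a fixed anchor-drug dose plus five library-drug doses (not always all listed) in √10 steps. After 5 days, cells were fixed and their nuclei stained in one step (final 0.05% Triton X-100, 1% formaldehyde, 1 ug/ml Hoechst), then counted on 4× images. Relative viability is the nuclei count in treated wells divided by that in vehicle wells. Values are medians of duplicate plates.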
# Alisertib + Linsitinib = compound: COc1cc(Nc2ncc3c(n2)-c2ccc(Cl)cc2C(c2c(F)cccc2OC)=NC3)ccc1C(=O)O [Alisertib] + C[C@]1(O)C[C@@H](c2nc(-c3ccc4ccc(-c5ccccc5)nc4c3)c3c(N)nccn32)C1 [Linsitinib] (partner 1 µM)
# How it was run: as §1
# Alisertib + Alpelisib = compound: COc1cc(Nc2ncc3c(n2)-c2ccc(Cl)cc2C(c2c(F)cccc2OC)=NC3)ccc1C(=O)O [Alisertib] + Cc1nc(NC(=O)N2CCC[C@H]2C(N)=O)sc1-c1ccnc(C(C)(C)C(F)(F)F)c1 [Alpelisib] (partner 2 µM)
# How it was run: as §1
# Alisertib + Vorinostat = compound: COc1cc(Nc2ncc3c(n2)-c2ccc(Cl)cc2C(c2c(F)cccc2OC)=NC3)ccc1C(=O)O [Alisertib] + O=C(CCCCCCC(=O)Nc1ccccc1)NO [Vorinostat] (partner 1 µM)
# How it was run: as §1
Cell Line,relative viability (Alisertib + Navitoclax; first compound 0.005 µM),relative viability (Alisertib + Navitoclax; first compound 0.01581 µM),relative viability (Alisertib + Navitoclax; first compound 0.05 µM),relative viability (Alisertib + Navitoclax; first compound 0.1581 µM),relative viability (Alisertib + Navitoclax; first compound 0.5 µM),relative viability (Alisertib + Linsitinib; first compound 0.005 µM),relative viability (Alisertib + Linsitinib; first compound 0.01581 µM),relative viability (Alisertib + Linsitinib; first compound 0.05 µM),relative viability (Alisertib + Linsitinib; first compound 0.1581 µM),relative viability (Alisertib + Linsitinib; first compound 0.5 µM),relative viability (Alisertib + Alpelisib; first compound 0.005 µM),relative viability (Alisertib + Alpelisib; first compound 0.01581 µM),relative viability (Alisertib + Alpelisib; first compound 0.05 µM),relative viability (Alisertib + Alpelisib; first compound 0.1581 µM),relative viability (Alisertib + Alpelisib; first compound 0.5 µM),relative viability (Alisertib + Vorinostat; first compound 0.005 µM),relative viability (Alisertib + Vorinostat; first compound 0.01581 µM),relative viability (Alisertib + Vorinostat; first compound 0.05 µM),relative viability (Alisertib + Vorinostat; first compound 0.1581 µM),relative viability (Alisertib + Vorinostat; first compound 0.5 µM)
LCLC-97TM1,0.523,0.353,0.121,0.116,0.115,0.197,0.185,0.135,0.114,0.0896,0.23,0.203,0.15,0.138,0.112,0.524,0.515,0.135,0.0952,0.0792
HARA,1.15,1.14,0.544,0.281,0.0564,1.03,0.919,0.361,0.189,0.0844,0.86,0.878,0.363,0.129,0.0864,0.44,0.131,0.0659,0.0632,0.0823
HCC-78,0.681,0.514,0.176,0.131,0.131,0.412,0.418,0.183,0.15,0.187,0.319,0.254,0.162,0.133,0.142,0.369,0.281,0.234,0.241,0.217
NCI-H1666,0.94,0.779,0.435,0.281,0.291,0.815,0.812,0.41,0.317,0.253,1.05,0.721,0.455,0.268,0.224,1.01,0.995,0.846,0.617,0.555
NCI-H2347,0.742,0.695,0.459,0.42,0.329,0.967,0.954,0.812,0.729,0.478,0.903,0.877,0.857,0.637,0.436,0.522,0.569,0.518,0.407,0.343
PC-14,0.924,0.881,0.663,0.362,0.0849,0.91,0.848,0.774,0.222,0.117,0.901,0.84,0.686,0.277,0.106,0.627,0.63,0.367,0.0643,0.0761
NCI-H2023,0.955,0.885,0.656,0.282,0.132,0.653,0.505,0.355,0.285,0.108,0.571,0.412,0.456,0.351,0.117,0.565,0.31,0.215,0.12,0.0981
201T,1.25,1.19,1.21,1.07,0.425,0.99,1.07,1,0.745,0.348,0.985,0.997,0.964,0.783,0.378,0.927,0.881,0.913,0.414,0.333
NCI-H1915,0.686,0.577,0.275,0.235,0.13,0.984,0.948,0.504,0.354,0.224,0.934,0.808,0.385,0.354,0.199,0.496,0.473,0.374,0.206,0.161
NCI-H2009,1.08,1.11,0.349,0.302,0.105,1.24,1.14,0.672,0.427,0.213,1.15,1.02,0.417,0.375,0.265,0.684,0.699,0.234,0.204,0.134
BEN,0.0634,0.063,0.0731,0.0469,0.0558,0.83,0.878,0.259,0.208,0.205,1.05,0.923,0.37,0.232,0.218,0.522,0.456,0.332,0.332,0.385
PC-3 [JPC-3],0.757,0.79,0.401,0.306,0.281,0.967,0.908,0.864,0.559,0.447,0.952,0.98,0.751,0.598,0.369,0.596,0.68,0.769,0.367,0.354
SK-MES-1,1.09,0.892,0.315,0.139,0.0931,0.953,0.963,0.725,0.279,0.16,0.681,0.717,0.341,0.172,0.139,0.954,0.976,0.365,0.206,0.216
NCI-H838,1.12,1.1,0.667,0.306,0.169,0.962,0.845,0.573,0.278,0.202,0.904,0.993,0.484,0.315,0.224,0.597,0.461,0.294,0.185,0.197
NCI-H1355,0.884,0.923,0.633,0.205,0.16,0.791,0.8,0.394,0.22,0.154,0.767,0.783,0.296,0.197,0.154,0.589,0.522,0.525,0.204,0.177
NCI-H1975,1.14,1.01,0.503,0.344,0.175,0.917,0.861,0.484,0.331,0.188,0.632,0.621,0.295,0.215,0.168,0.657,0.688,0.284,0.214,0.201
LK-2,0.859,0.722,0.356,0.181,0.225,0.519,0.454,0.337,0.206,0.175,1.08,0.878,0.364,0.299,0.268,0.229,0.326,0.167,0.176,0.186
NCI-H727,0.389,0.477,0.183,0.166,0.152,0.415,0.366,0.216,0.242,0.194,0.663,0.515,0.434,0.302,0.244,1.19,0.986,0.939,0.471,0.561
HCC-366,0.976,1.04,0.094,0.0103,0.019,0.688,0.611,0.043,0.0079,0.0142,0.337,0.46,0.0611,0.0117,0.0152,0.171,0.0448,0.0208,0.0312,0.0381

Cell Line,relative viability (Alisertib + Navitoclax; first compound 0.005 µM),relative viability (Alisertib + Navitoclax; first compound 0.01581 µM),relative viability (Alisertib + Navitoclax; first compound 0.05 µM),relative viability (Alisertib + Navitoclax; first compound 0.1581 µM),relative viability (Alisertib + Navitoclax; first compound 0.5 µM),relative viability (Alisertib + Linsitinib; first compound 0.005 µM),relative viability (Alisertib + Linsitinib; first compound 0.01581 µM),relative viability (Alisertib + Linsitinib; first compound 0.05 µM),relative viability (Alisertib + Linsitinib; first compound 0.1581 µM),relative viability (Alisertib + Linsitinib; first compound 0.5 µM),relative viability (Alisertib + Alpelisib; first compound 0.005 µM),relative viability (Alisertib + Alpelisib; first compound 0.01581 µM),relative viability (Alisertib + Alpelisib; first compound 0.05 µM),relative viability (Alisertib + Alpelisib; first compound 0.1581 µM),relative viability (Alisertib + Alpelisib; first compound 0.5 µM),relative viability (Alisertib + Vorinostat; first compound 0.005 µM),relative viability (Alisertib + Vorinostat; first compound 0.01581 µM),relative viability (Alisertib + Vorinostat; first compound 0.05 µM),relative viability (Alisertib + Vorinostat; first compound 0.1581 µM),relative viability (Alisertib + Vorinostat; first compound 0.5 µM)
HOP-62,0.966,0.919,0.214,0.139,0.0669,0.551,0.853,0.305,0.203,0.155,0.926,0.976,0.345,0.198,0.133,0.497,0.443,0.174,0.102,0.138
NCI-H1944,1.06,1.01,0.969,0.415,0.194,1.23,1.33,0.971,0.508,0.265,0.788,0.882,0.626,0.41,0.207,0.573,0.52,0.339,0.183,0.188
NCI-H650,,,,,,0.614,0.727,0.437,0.217,0.188,1.15,0.947,0.513,0.237,0.205,0.263,0.414,0.144,0.17,0.131
EBC-1,0.298,0.278,0.131,0.17,0.167,0.678,0.731,0.211,0.179,0.147,0.578,0.597,0.272,0.225,0.153,,,,,
NCI-H1648,,,,,,,,,,,,,,,,,0.22,0.315,0.235,0.236
SW 900,,,,,,,,,,,,,,,,0.351,0.369,0.476,0.221,0.223
ABC-1,,,,,,0.661,0.707,0.584,0.416,0.204,0.979,0.724,0.929,0.475,0.223,0.993,0.753,0.46,0.249,0.332
NCI-H1792,0.608,0.6,0.494,0.096,0.0626,0.546,0.372,0.177,0.076,0.0631,0.678,0.606,0.246,0.0918,0.0744,,,,,
NCI-H1563,,,,,,1.04,1.01,1.01,0.935,0.744,0.967,0.848,0.9,0.824,0.719,,,,,
NCI-H1299,1.03,1.01,0.801,0.395,0.204,0.936,0.932,0.71,0.271,0.189,1.06,1,0.815,0.522,0.279,,,,,
ChaGo-K-1,1.01,0.8,0.313,0.286,0.239,,,,,,,,,,,0.653,0.643,0.24,0.207,0.161
NCI-H2170,0.564,0.55,0.238,0.232,0.178,,,,,,0.732,0.749,0.424,0.34,0.199,0.766,0.782,0.318,0.2,0.164
NCI-H522,,,,,,,,,,,,,,,,0.823,0.897,0.822,0.521,0.549
A549,1.1,0.642,0.215,0.0692,0.0461,0.556,0.414,0.139,0.0745,0.0473,0.531,0.333,0.144,0.059,0.0557,,,,,
NCI-H358,,,,,,0.735,0.486,0.202,0.159,0.14,0.753,0.584,0.257,0.19,0.151,0.551,0.449,0.105,0.1,0.0875
NCI-H661,,,,,,0.635,0.389,0.304,0.323,0.282,0.579,0.669,0.552,0.31,0.235,0.771,0.729,0.435,0.355,0.276
LCLC-103H,,,,,,1.05,1.03,1.03,0.235,0.297,0.849,1.03,0.313,0.335,0.333,0.67,0.561,0.352,0.323,0.396
NCI-H1650,0.967,0.613,0.286,0.145,0.131,,,,,,,,,,,0.57,0.488,0.388,0.176,0.185
Calu-6,0.713,0.377,0.13,0.0974,0.107,0.733,0.763,0.295,0.129,0.162,0.771,0.566,0.249,0.188,0.191,,,,,
